Laboratory results as given in US9302999B2, “Substituted triazoles as herbicides” (E. I. DU PONT DE NEMOURS AND COMPANY, priority 2012, dated 2016).

Tests used:
Type in all cases: in vivo
[1] = test system: nightshade (eastern black nightshade, Solanum ptycanthum); assay: Test F pre-/postemergence: nightshade; conditions: Preemergence
Procedure, shortened: (§1)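 Visual response scores, 0 meaning no effect and 100 complete control, were assigned against untreated controls 14 to 21 days after treatment. Test chemicals in a surfactant-containing non-phytotoxic solvent were applied preemergence to seeded silt loam soil or postemergence to 2–18 cm plants in peat-based medium.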

[2] = test system: barley, spring (spring barley, Hordeum vulgare); assay: Test D pre-/postemergence: barley, spring
Procedure, shortened: (§2)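 Visual control ratings (0–100) after 14–21 days, controlled environment. Preemergence on silt loam; postemergence on 2–18 cm plants.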

[3] = test system: chamomile (scentless chamomile, Matricaria inodora); assay: Test D pre-/postemergence: chamomile
Procedure, shortened: as §2

[4] = test system: ryegrass, Italian (Italian ryegrass, Lolium multiflorum); assay: Test F pre-/postemergence: ryegrass, Italian; conditions: Preemergence
Procedure, shortened: as §1

[5] = test system: mustard, wild (wild mustard, Sinapis arvensis); assay: Test D pre-/postemergence: mustard, wild
Procedure, shortened: as §2

[6] = test system: surinam grass (Brachiaria decumbens); assay: Test F pre-/postemergence: surinam grass; conditions: Preemergence
Procedure, shortened: as §1

[7] = test system: johnsongrass (Sorghum halepense); assay: Test F pre-/postemergence: johnsongrass; conditions: Preemergence
Procedure, shortened: as §1

[8] = test system: panicum, fall (fall panicum Panicum dichotomiflorum); assay: Test F pre-/postemergence: panicum, fall; conditions: Preemergence
Procedure, shortened: as §1

soybean (Glycine max) = assay: Test F pre-/postemergence: soybean; conditions: Preemergence
Procedure, shortened: as §1

[9] = 16 g ai/ha, scale 0 to 100, 0 no effect, 100 complete control
[10] = 31 g ai/ha, scale 0 to 100, 0 no effect, 100 complete control
[11] = Postemergence, 31 g ai/ha, scale 0 to 100 (0 no effect, 100 complete control)
[12] = Postemergence, 62 g ai/ha, scale 0 to 100 (0 no effect, 100 complete control)
[13] = Postemergence, 125 g ai/ha, scale 0 to 100, 0 no effect, 100 complete control
[14] = Postemergence, 16 g ai/ha, scale 0 to 100
[15] = Preemergence, 16 g ai/ha, scale 0 to 100, 0 no effect, 100 complete control
[16] = Preemergence, 31 g ai/ha, scale 0 to 100, 0 no effect, 100 complete control
[17] = Preemergence, 62 g ai/ha, scale 0 to 100
[18] = Preemergence, 125 g ai/ha, scale 0 to 100

Cc1nn(-c2ccc(C(F)(F)F)c(F)c2)nc1Oc1ccnc(C(F)(F)F)c1 [Compound 148]
Plant response rating, Nightshade [1, 9]: 0 | Plant response rating, Nightshade [1, 10]: 0 | Plant response rating, Nightshade ([1]; 125 g ai/ha, scale 0 to 100): 98 | Plant response rating, Nightshade ([1]; 250 g ai/ha, scale 0 to 100): 98 | Plant response rating: Barley, Spring [2, 11]: 15 | Plant response rating: Barley, Spring [2, 12]: 20 | Plant response rating: Barley, Spring [2, 13]: 25 | Plant response rating, Barley, Spring [2, 14]: 10 | Plant response rating, Barley, Spring [2, 15]: 0 | Plant response rating, Barley, Spring [2, 16]: 0 | Plant response rating, Barley, Spring [2, 17]: 5 | Plant response rating, Barley, Spring [2, 18]: 5 | Plant response rating: Chamomile [3, 11]: 70 | Plant response rating: Chamomile [3, 12]: 75 | Plant response rating: Chamomile [3, 13]: 95 | Plant response rating, Chamomile [3, 14]: 60 | Plant response rating, Chamomile [3, 15]: 10 | Plant response rating, Chamomile [3, 16]: 20 | Plant response rating, Chamomile [3, 17]: 70 | Plant response rating, Chamomile [3, 18]: 100 | Plant response rating, Ryegrass, Italian [4, 9]: 0 | Plant response rating, Ryegrass, Italian [4, 10]: 0 | Plant response rating, Ryegrass, Italian ([4]; 125 g ai/ha, scale 0 to 100): 95 | Plant response rating, Ryegrass, Italian ([4]; 250 g ai/ha, scale 0 to 100): 100 | Plant response rating: Mustard, Wild [5, 11]: 100 | Plant response rating: Mustard, Wild [5, 12]: 100 | Plant response rating: Mustard, Wild [5, 13]: 100 | Plant response rating, Mustard, Wild [5, 14]: 55 | Plant response rating, Mustard, Wild [5, 15]: 20 | Plant response rating, Mustard, Wild [5, 16]: 15 | Plant response rating, Mustard, Wild [5, 17]: 55 | Plant response rating, Mustard, Wild [5, 18]: 95 | Plant response rating, Surinam Grass [6, 9]: 25 | Plant response rating, Surinam Grass [6, 10]: 40 | Plant response rating, Surinam Grass ([6]; 125 g ai/ha, scale 0 to 100): 98 | Plant response rating, Surinam Grass ([6]; 250 g ai/ha, scale 0 to 100): 98 | Plant response rating, Johnsongrass [7, 9]: 0 | Plant response rating, Johnsongrass [7, 10]: 20 | Plant response rating, Johnsongrass ([7]; 62 g ai/ha, scale 0 to 100): 20 | Plant response rating, Johnsongrass ([7]; 125 g ai/ha, scale 0 to 100): 30 | Plant response rating, Johnsongrass ([7]; 250 g ai/ha, scale 0 to 100): 40 | Plant response rating, Panicum, Fall [8, 9]: 75 | Plant response rating, Panicum, Fall [8, 10]: 85 | Plant response rating, Panicum, Fall ([8]; 125 g ai/ha, scale 0 to 100): 100 | Plant response rating, Panicum, Fall ([8]; 250 g ai/ha, scale 0 to 100): 100 | Plant response rating, Soybean (soybean (Glycine max); [9]): 0 | Plant response rating, Soybean (soybean (Glycine max); [10]): 0 | Plant response rating, Soybean (soybean (Glycine max); 125 g ai/ha, scale 0 to 100): 20 | Plant response rating, Soybean (soybean (Glycine max); 250 g ai/ha, scale 0 to 100): 40
